Columns and labels:
SK-GT-4 EAC cells = experiment: MTT proliferation assay, SK-GT-4 cells; format: cell-based; settings: SKGT4, 72 h, read-out: Antiproliferative activity IC50, SK-GT-4
Method: (§1) The FLO-1, SK-GT-4, and THP-1 cell lines were a gift from Dr. Shrikant Anant’s laboratory. Cells were grown in 10% fetal bovine serum (Fisher Scientific#FB12999102, Pittsburgh, PA, USA) and 1% antibiotic/antimycotic agent (Corning, Tewksbury, MA, USA) in RPMI 1640 media mixed with […] HEPES, L-glutamine (Corning, MA, USA). The cell lines were grown in a 5% CO2 incubator at 37 °C and used below 15 passages for the experiments.
(§2) The proliferation assay used a 3-(4,5-dimethylthiazol-2-yl)-2,5-diphenyltetrazolium bromide (MTT) assay. Briefly, 5000 FLO-1 and SK-GT-4 cells were counted and seeded in each well in 96-well plates. Post 24 h of incubation, EAC cells were treated with multiple concentrations (0–10 μM) of niclosamide (Cayman chemical#10649, Ann Arbor, MI, USA) and its analogs. At respective time points, 10 μL of stock MTT reagent (Millipore Sigma, Bedford, MA, USA) (3 mg/mL) was added to each well and incubated for 1–2 h under the dark at 37 °C. After incubation, the purple formazan crystals were dissolved in equal volumes of DMSO, and the absorbance of the resulting clear solutions was recorded at 570 nm using a microplate reader. A CCK-8 (Abcam, Cat no. ab228554, Burlingame, CA, USA) assay was used for the THP-1 cells. Briefly, 5000 cells were plated in every well of a 96-well plate. After 24 h of plating, THP-1 cells were treated with niclosamide and compound 3a. After the respective time point, an equal amount of CCK-8 reagent was pipetted to the wells and incubated for one hour in an incubator, and finally, the absorbance was recorded at 450 nm. The percent change in the proliferation was calculated by comparing the cell viability of the treated groups to the untreated control cells.

FLO-1 EAC cells = experiment: MTT proliferation assay, FLO-1 cells; format: cell-based; settings: FLO-1, 72 h, read-out: Antiproliferative activity IC50, FLO-1
Method: as §1, §2

[1] = tested on: SK-GT-4 and FLO-1 EAC cells; experiment: Colony formation assay; format: cell-based; settings: 1.5 µM (SK-GT-4) and 0.8 µM (FLO-1); both EAC cell lines
Method: In total, 500 SK-GT-4 and FLO-1 cells were seeded in each well of 6-well plates before 24 h treatment of niclosamide analog 3a IC50 concentration and an equivalent dose of niclosamide. The media was changed after 72 h with drug-free media to remove drug exposure and allow them to grow and form colonies for 10–12 days. At the end of the experiment, the colonies were washed using PBS three times, fixed with 10% formalin solution (Fisher Scientific#23-305510, Pittsburgh, PA, USA), and stained using a 1% crystal violet (Sigma-Aldrich#C6158, St. Louis, MO, USA) solution in 10% ethanol for 15 min. The colonies were then washed with water, dried at room temperature, counted, and imaged. The number of colonies in the treated cells was compared with untreated cells.

SK-GT-4 cells = experiment: Spheroid formation assay; format: cell-based; settings: 1.5 µM, SK-GT-4, 7 days
Method: In the ultra-low attachment plates (Corning, Lowell, MA, USA), 500 SK-GT-4 cells were seeded in each well with the spheroid media [DMEM medium supplemented with EGF (20 ng/mL), FGF (20 ng/mL), heparin (4 µg/mL), B27 (10 mL in 500 mL of 50×) (Invitrogen, Carlsbad, CA, USA), and antibiotic pen/strep (1%)]. After 24 h, spheroids were treated with 3a (IC50 dose) and an equivalent dose of niclosamide. Spheroids were counted after 7 days, and images were taken.

STAT3 = experiment: Western blot, p-STAT3 and STAT3 in EAC cells; format: cell-based; settings: SK-GT-4 1.5 µM and FLO-1 0.8 µM, 72 h
Method: (§3) A total of 500,000 FLO-1 and SK-GT-4 cells were seeded in 10 cm^2 dishes. After 24 h, cells were incubated with a vehicle, niclosamide analog 3a (IC50 concentration), and niclosamide (equivalent dose of 3a IC50 concentration). Then, 72 h post-treatment with the compounds, the media were removed to eliminate the dead/floating cells and washed with PBS. The cells were then scraped using a cell scraper in the lysis buffer containing a protease/phosphatase inhibitor cocktail (Thermo Scientific# A32959, Rockford, IL, USA). Further cells were lysed and sonicated using a probe sonicator (Fisher Scientific Model no FB120). The resulting lysates were centrifuged at 6500 rpm and 4 °C for 10 min. […] (Thermo Scientific, Rockford, IL, USA) method was used to estimate total protein levels in the prepared cell lysates, which were diluted with lysis buffer mixed with 2× Laemmli buffer (Biorad#1610737, Hercules, CA, USA) and boiled for 5 min at […]. Equal volumes of protein (50 μg) were used on the SDS-PAGE for separation using gel electrophoresis. […]

β-catenin = experiment: Western blot, active non-phospho-β-catenin in EAC cells; format: cell-based; settings: SK-GT-4 1.5 µM and FLO-1 0.8 µM, 72 h
Method: as §3

[2] = tested on: M. mycetomatis MM55 strain; experiment: In vitro susceptibility testing (MTS), MM55 strain; format: cell-based, Madurella mycetomatis; settings: Madurella mycetomatis, MM55STRAIN
Method: The antifungal activity of the compounds was tested against a geographically and genetically diverse set of M. mycetomatis isolates. These included the MM55 strain from Sudan, strains I1, I3, and […] from India, strain P1 from Mali, strain SO1 from Somalia, strain Peru72012 from Peru, and strain CBS247.48 whose country of origin was unknown. All isolates were originally obtained from patients and identified and maintained in the Erasmus Medical Centre, Rotterdam, The Netherlands. In vitro susceptibility testing was performed as reported previously. The only difference was that tetrazolium compound 3-(4,5-dimethylthiazol-2-yl)-5-(3-carboxymethoxyphenyl)-2-(4-sulfophenyl)-2H-tetrazolium salt (MTS) was used as a viability dye in endpoint reading instead of 2,3-bis-(2-methoxy-4-nitro-5-sulfophenyl)-2H-tetrazolium-5-carboxanilide salt (XTT).

[3] = tested on: M. mycetomatis SO1 isolate; set-up: method as in PMID 34209118; settings: read-out: IC50 against the Somalian SO1 isolate; cited from earlier work

- IC50 (SK-GT-4 EAC cells): 1.77 ± 0.77 µM
- IC50 ([2]; read-out: Antifungal activity IC50): 15 ± 1.6 µM
- IC90 ([2]; read-out: Antifungal activity IC90): 23.8 ± 0.1 µM
SMILES: O=C(Nc1ccc([N+](=O)[O-])cc1Cl)c1cc(Cl)ccc1O [Niclosamide]
- IC50 (FLO-1 EAC cells): 1.05 ± 0.28 µM
- Inhibition of colony formation [1]: slightly less efficient than 3a
- Inhibition of spheroid formation (SK-GT-4 cells): inhibit spheroid formation
- Activating phosphorylation of STAT3 at TYR705 (Western blot) (STAT3): inhibited activating STAT3 phosphorylation but not as strongly as 3a
- Active (non-phosphorylated) β-catenin (Western blot) (β-catenin): suppressed
- IC50 [3]: 2.38 µM
